Like-named read-outs stand apart in the source and are kept apart here.
System: CEM/LAV-1
Conditions: for TCID50/ml / Inhibition rate (%): CEM/LAV-1 cells cultured 96 hours; for TCID50/ml: titer by 72-hour culture on MT-4 cells, control 4 x 10^5; for Inhibition rate (%): versus control without agent
Experimental: A test agent was added at predetermined concentrations to cells (2 x 10^5 cells/ml, 10 ml) persistently infected with HIV in a logarithmic growth phase to culture the cells for 96 hours. The number of viable cells and the number of killed cells were counted every 24 hours by a trypan blue dye exclusion test to determine the cytotoxic effect of the test agent on the cells. A viral infectious titer (TCID50/ml) in each of the culture solutions incubated for 96 hours was determined by 72-hour culture using, as an index, the giant cell formation of MT-4 cells. In a control group, the cells were cultured in a medium free of any agent. An anti-HIV activity (inhibition %) was determined in accordance with the following equation: Anti-HIV activity (inhibition %) =(TC)/(TC)x 100 [formula]

CCCCCCCCCCCCCC(=O)OCC/C(SS/C(CCOC(=O)CCCCCCCCCCCCC)=C(/C)N(C=O)Cc1cnc(C)nc1N)=C(\C)N(C=O)Cc1cnc(C)nc1N [compound (1), thiamine disulfide dimyristate]
inhibitory effect (CEM/LAV-1 cells, concentration of from 50 to 125 µm): ~100% | TCID50/ml (Invention compound 50 µM): 8 x 10^2 TCID50/ml | Inhibition rate (%) (Invention compound 50 µM): 99.5% | TCID50/ml (Invention compound 125 µM): 8 x 10^2 TCID50/ml | Inhibition rate (%) (Invention compound 125 µM): 99.5%
